Where two headings read alike, the source gives them in different places.
Assays:
[1] = test system: IL-2 stimulated pSTAT5 in Tall-1 T cells; assay: Cellular JAK3 potency assay: inhibition of IL-2 stimulated pSTAT5 in Tall-1 T cells; assay type: cell-based, human; settings: for IC50: Homo sapiens, read-out: Tall-1 (pIC50) (converted)
How it was run: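 Inhibition of IL-2-induced pSTAT5 was quantified by AlphaLisa in Tall-1 cell lysates. Compound exposure lasted 1 h before 30 min stimulation with 300 ng/ml IL-2 final.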

JAK3 = molecular target: T1, JAK3 (Homo sapiens, UniProt P52333); assay: Biochemical JAK3 kinase assay (LanthaScreen); set-up: GST; purchased Life Technologies; settings: for Ki: read-out: JAK 3 (pKi) (converted)
T1 sequence (P52333 1-1124): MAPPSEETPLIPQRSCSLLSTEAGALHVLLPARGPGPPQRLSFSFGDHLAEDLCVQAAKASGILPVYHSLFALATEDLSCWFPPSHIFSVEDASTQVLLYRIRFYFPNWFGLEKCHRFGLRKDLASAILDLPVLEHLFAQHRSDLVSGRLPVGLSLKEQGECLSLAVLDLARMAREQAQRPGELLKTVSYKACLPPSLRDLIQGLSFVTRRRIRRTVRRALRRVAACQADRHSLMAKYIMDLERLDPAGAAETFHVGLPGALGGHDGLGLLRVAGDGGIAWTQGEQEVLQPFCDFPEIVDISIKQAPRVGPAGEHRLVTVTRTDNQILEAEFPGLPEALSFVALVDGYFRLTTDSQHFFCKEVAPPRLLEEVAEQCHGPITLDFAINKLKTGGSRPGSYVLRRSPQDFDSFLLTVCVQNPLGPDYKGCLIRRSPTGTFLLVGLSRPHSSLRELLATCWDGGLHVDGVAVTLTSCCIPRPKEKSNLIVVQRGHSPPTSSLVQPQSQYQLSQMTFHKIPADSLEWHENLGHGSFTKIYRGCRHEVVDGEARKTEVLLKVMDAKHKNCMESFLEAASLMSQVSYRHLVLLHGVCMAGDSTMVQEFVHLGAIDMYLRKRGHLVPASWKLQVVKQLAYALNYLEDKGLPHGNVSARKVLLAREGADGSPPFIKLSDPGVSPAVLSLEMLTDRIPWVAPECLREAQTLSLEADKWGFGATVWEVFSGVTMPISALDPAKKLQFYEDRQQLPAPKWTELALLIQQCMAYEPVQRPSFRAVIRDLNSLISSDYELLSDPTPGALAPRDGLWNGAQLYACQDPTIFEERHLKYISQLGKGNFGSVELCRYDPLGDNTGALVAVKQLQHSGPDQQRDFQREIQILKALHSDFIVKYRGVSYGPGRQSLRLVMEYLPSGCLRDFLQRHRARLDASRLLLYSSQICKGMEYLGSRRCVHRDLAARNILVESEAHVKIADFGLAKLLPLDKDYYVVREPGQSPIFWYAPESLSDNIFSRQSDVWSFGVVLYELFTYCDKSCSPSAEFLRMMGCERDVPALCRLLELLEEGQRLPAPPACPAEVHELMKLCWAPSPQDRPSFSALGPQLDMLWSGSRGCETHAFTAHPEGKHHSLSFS
How it was run: (§1)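 Compounds were preincubated with the GST-tagged kinase and GFP-labelled STAT1 peptide for one hour before ATP initiated a one-hour reaction at ambient temperature. Phosphorylation was quantified by TR-FRET with a Tb-labelled pTyr701 antibody. Ki values were derived from IC50 using Cheng-Prusoff.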

JAK1 = molecular target: T2, JAK1 (Homo sapiens, UniProt P23458); assay: Biochemical JAK1 kinase assay (LanthaScreen); settings: for Ki: read-out: JAK 1 (pKi) (converted)
T2 construct: GST; purchased Life Technologies
How it was run: as §1

[2] = IL-2 stimulated pSTAT5 in Tall-1 T cells
[3] = selectivity: difference of pKi JAK3 and pKi JAK1
[4] = IL-2 stimulated pSTAT5, Tall-1 T cells
[5] = selectivity JAK3 over JAK1, difference of pKi
[6] = TALL-1, IL-2 stimulated pSTAT5, Tall-1 T cells
[7] = TALL-1, IL-2 stimulated pSTAT5 in Tall-1 T cells

T2 sequence (P23458 whole entry): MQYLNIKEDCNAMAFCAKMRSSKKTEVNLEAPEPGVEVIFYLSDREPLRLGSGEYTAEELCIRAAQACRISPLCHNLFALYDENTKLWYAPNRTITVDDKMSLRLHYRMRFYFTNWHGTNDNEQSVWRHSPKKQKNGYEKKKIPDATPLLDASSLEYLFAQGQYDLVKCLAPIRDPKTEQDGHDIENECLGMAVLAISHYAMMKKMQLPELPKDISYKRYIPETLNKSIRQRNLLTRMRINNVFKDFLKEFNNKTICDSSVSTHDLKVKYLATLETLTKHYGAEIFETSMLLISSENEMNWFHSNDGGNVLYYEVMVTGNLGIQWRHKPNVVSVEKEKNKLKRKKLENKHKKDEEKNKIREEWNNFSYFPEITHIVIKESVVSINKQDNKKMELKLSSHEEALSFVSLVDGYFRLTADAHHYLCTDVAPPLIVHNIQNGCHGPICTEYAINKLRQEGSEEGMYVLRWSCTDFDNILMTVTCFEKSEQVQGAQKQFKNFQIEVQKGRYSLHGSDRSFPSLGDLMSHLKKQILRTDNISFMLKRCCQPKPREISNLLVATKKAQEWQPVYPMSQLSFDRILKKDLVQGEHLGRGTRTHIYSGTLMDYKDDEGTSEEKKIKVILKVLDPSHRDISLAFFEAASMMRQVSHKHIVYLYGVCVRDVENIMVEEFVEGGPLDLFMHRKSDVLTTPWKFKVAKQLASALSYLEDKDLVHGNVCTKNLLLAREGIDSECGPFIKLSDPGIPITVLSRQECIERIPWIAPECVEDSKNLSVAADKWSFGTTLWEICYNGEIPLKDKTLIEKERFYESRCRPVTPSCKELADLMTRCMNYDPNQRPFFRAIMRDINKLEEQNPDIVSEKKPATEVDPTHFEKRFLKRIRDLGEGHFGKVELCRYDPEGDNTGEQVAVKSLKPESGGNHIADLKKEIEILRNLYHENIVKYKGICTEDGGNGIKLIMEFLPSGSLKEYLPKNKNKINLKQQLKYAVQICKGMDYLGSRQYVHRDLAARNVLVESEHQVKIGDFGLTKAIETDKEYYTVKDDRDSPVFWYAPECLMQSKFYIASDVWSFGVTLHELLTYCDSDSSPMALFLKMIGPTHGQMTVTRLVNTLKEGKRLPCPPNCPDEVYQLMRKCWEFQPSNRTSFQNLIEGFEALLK

Structure (SMILES)	Tall-1 (pIC50) [1, 2]	JAK 3 (pKi) (JAK3)	JAK3 (pKi)-JAK1 (pKi) (JAK3; [3])	JAK 1 (pKi) (JAK1)	Tall-1 (pIC50) [1, 4]	JAK3 (pKi)-JAK1 (pKi) (JAK3; [5])	IC50 [1, 6] [µM]	Ki (JAK3) [µM]	Ki (JAK1) [µM]	IC50 [1, 7] [µM]
CN(C)C/C=C/C(=O)N1CC[C@H](COc2cc(-c3ccc(O)cc3)cc3[nH]ncc23)C1 [Compound 2-1]	C (a pIC50 value between 6 and 6.7 (IC50 between 1 μM and 200 nM))	A (a pKi value≥10 (Ki≤0.1 nM))	B (a value of 2.3 to 3)	D (a pKi value between 7 and 8 (Ki between 100 nM and 10 nM))						
C=CC(=O)N1CC(Oc2nc(-c3ccc(O)cc3)nc3[nH]ncc23)C1 [Compound 5-20]		B (a pKi value between 9 and 10 (Ki between 1 nM and 0.1 nM))		E (a pKi value of 7 or below (Ki of 100 nM or above))	C (a pIC50 value between 6 and 6.7 (IC50 between 1 μM and 200 nM))	A (a value of 3 or above)				
C=CC(=O)N1CC(COc2cc(-c3ccc(O)cc3)cc3[nH]nc(N(C)C)c23)C1 [Compound 18-11]						A (a value of 3 or above)	0.2 to 1	0.0001 to 0.001	> 0.1	
CN(C)C/C=C/C(=O)N1CCC(Nc2cc(-c3ccc(O)cc3)cc3[nH]ncc23)C(F)(F)C1 (stereo not shown) [Compound 7-5]						C (a value of 1.8 to 2.3)	0.0316 to 0.2	0.0001 to 0.001	0.01 to 0.1	
CN(C)CC=CC(=O)N1C2CCC1CC(Oc1cc(-c3ccc(O)c(F)c3)cc3[nH]ncc13)C2 (stereo not shown) [Compound 10-5]		B (a pKi value between 9 and 10 (Ki between 1 nM and 0.1 nM))		D (a pKi value between 7 and 8 (Ki between 100 nM and 10 nM))	B (a pIC50 value between 6.7 (included) and 7.5 (IC50 between 200 nM and 32 nM))	C (a value of 1.8 to 2.3)				
C=CC(=O)N1CC[C@H](COc2cc(-c3ccc(O)cc3)nc3[nH]ncc23)C1 [Compound 2-6]	C (a pIC50 value between 6 and 6.7 (IC50 between 1 μM and 200 nM))	A (a pKi value≥10 (Ki≤0.1 nM))	A (a value of 3 or above)	E (a pKi value of 7 or below (Ki of 100 nM or above))						
C=CC(=O)N1CC[C@H](COc2cc(-c3ccc(O)c(Cl)c3)nc3[nH]ncc23)C1 [Compound 2-16]	C (a pIC50 value between 6 and 6.7 (IC50 between 1 μM and 200 nM))	B (a pKi value between 9 and 10 (Ki between 1 nM and 0.1 nM))	A (a value of 3 or above)	E (a pKi value of 7 or below (Ki of 100 nM or above))						
CN(C)C/C=C/C(=O)N1CC2(CC(Oc3nc(-c4ccc(O)cc4)cc4[nH]ncc34)C2)C1 [Compound 15-6]		A (a pKi value≥10 (Ki≤0.1 nM))		D (a pKi value between 7 and 8 (Ki between 100 nM and 10 nM))	C (a pIC50 value between 6 and 6.7 (IC50 between 1 μM and 200 nM))	B (a value of 2.3 to 3)				
C=C(CN(C)C)C(=O)N1CC[C@H](Oc2cc(-c3ccc(O)cc3)cc3[nH]ncc23)C1 [Compound 16, (S)-2-((dimethylamino)methyl)-1-(3-((6-(4-hydroxyphenyl)-1H-indazol-4-yl)oxy)pyrrolidin-1-yl)prop-2-en-1-one]			A (a value of 3 or above)					0.0001 to 0.001	> 0.1	0.0316 to 0.2
C=CC(=O)N1CC[C@@H](Sc2cc(-c3ccc(O)cc3)cc3[nH]ncc23)C1 [Compound 12-2]		B (a pKi value between 9 and 10 (Ki between 1 nM and 0.1 nM))		E (a pKi value of 7 or below (Ki of 100 nM or above))	B (a pIC50 value between 6.7 (included) and 7.5 (IC50 between 200 nM and 32 nM))	B (a value of 2.3 to 3)				
CN(C)C/C=C/C(=O)N1CC2(CC(Oc3cc(-c4ccc(O)c(Cl)c4)cc4[nH]ncc34)C2)C1 [Compound 15-4]		A (a pKi value≥10 (Ki≤0.1 nM))		E (a pKi value of 7 or below (Ki of 100 nM or above))	B (a pIC50 value between 6.7 (included) and 7.5 (IC50 between 200 nM and 32 nM))	A (a value of 3 or above)				
C=CC(=O)N1CCC(Oc2cc(-c3ccc(O)cc3)cc3[nH]nnc23)C1 (stereo not shown) [Compound 17-2]		A (a pKi value≥10 (Ki≤0.1 nM))		E (a pKi value of 7 or below (Ki of 100 nM or above))	C (a pIC50 value between 6 and 6.7 (IC50 between 1 μM and 200 nM))	A (a value of 3 or above)				
C=CC(=O)N1CCC[C@@H](C(=O)Nc2cc(-c3ccc(O)cc3)cc3[nH]ncc23)C1 [Compound 12-55]						A (a value of 3 or above)	0.0316 to 0.2	< 0.0001	> 0.1	
CN(C)C/C=C/C(=O)N1CC[C@@H](COc2cc(-c3ccc(O)cc3)cc3[nH]ncc23)C1 [Compound 12-19]						A (a value of 3 or above)	0.2 to 1	< 0.0001	> 0.1	
C=CC(=O)N1CC2(CC(Oc3cc(-c4ccc(O)cc4)cc4[nH]ncc34)C2)C1 [Compound 12-21]						B (a value of 2.3 to 3)	< 0.0316	0.0001 to 0.001	> 0.1	
CN(C)C/C=C/C(=O)N1CC(C)(COc2cc(-c3ccc(O)c(Cl)c3)cc3[nH]ncc23)C1 [Compound 3-9]			B (a value of 2.3 to 3)					0.0001 to 0.001	> 0.1	0.0316 to 0.2
C=CC(=O)N1CCCC(C(=O)Nc2cc(-c3ccc(O)cc3)cc3[nH]ncc23)C1 (stereo not shown) [Compound 12-40]						B (a value of 2.3 to 3)	0.2 to 1	0.0001 to 0.001	> 0.1	
C=CC(=O)N1CC(C)(COc2cc(-c3ccc(O)c(F)c3)cc3[nH]ncc23)C1 [Compound 3-12]			B (a value of 2.3 to 3)					0.0001 to 0.001	> 0.1	0.0316 to 0.2
CN(C)C/C=C/C(=O)N1CCC(COc2nc(-c3ccc(O)c(Cl)c3)cc3[nH]ncc23)CC1 [Compound 14-10]		B (a pKi value between 9 and 10 (Ki between 1 nM and 0.1 nM))		D (a pKi value between 7 and 8 (Ki between 100 nM and 10 nM))	C (a pIC50 value between 6 and 6.7 (IC50 between 1 μM and 200 nM))	C (a value of 1.8 to 2.3)				

Source: patent US10392368B2, “Pyrazolo and triazolo bicyclic compounds as JAK kinase inhibitors” (THERAVANCE BIOPHARMA R&D IP, LLC, priority 2017, dated 2019)
